The values that follow come from patent US20210087593A1, “N-[…] ALKALOID COMPOUNDS” (Willow BioSciences Inc., priority 2017, published 2021).

For test [1], the system named is EsNMT. Nature of the test: N-alkylation substrate screen using EsNMT (LC-MS). The format is biochemical, Ephedra sinica. On the set-up: key to N-alkylation of substrate alkaloid compounds, Enzyme EsNMT: −=no detectable quantities of product N-alkylated compound; Trace, +, ++, +++=increasing relative levels of product N-alkylated compound; Trace, +, ++, +++=increasing relative levels of product N-alkylated compound; Trace, +, ++, +++=increasing relative levels of product N-alkylated compound; Trace, +, ++, +++=increasing relative levels of product N-alkylated compound. The settings on record: for N-alkylation of substrate alkaloid compounds, Enzyme EsNMT: 25 μg protein, 1 mM substrate, 1 mM SAM, 60 mM HEPES pH 8, 16 hours at 37° C., relative level of N-alkylated product by LC-MS; for N-alkylated alkaloid product detected after incubation with EsNMT (SEQ. ID NO: 2): incubated in accordance with Example 1, LC-MS. Here is the method:
The EsNMT coding sequence was amplified from Ephedra sinica cDNA using gene-specific primers containing restriction sites with Q5 HiFi DNA polymerase (NEB). Restriction digests and ligations (NEB) were carried out to generate a pQE plasmid (Qiagen) for heterologous expression of HIS6-tagged recombinant EsNMT. Protein overexpression was carried out at 18° C. in Escherichia coli SG13009 (Qiagen) grown in lysogeny broth (LB) to which 0.5 mM isopropyl β-D-1-thiogalactopyranoside (IPTG) was added.
(§1) Total soluble protein was extracted from each culture and the recombinant NMTs were purified using TALON cobalt affinity resin (Clontech) followed by desalting and concentration with Amicon Ultra-30 centrifugal filters (EMD Millipore). Protein concentration was determined using the Bradford method, and purity was assessed by SDS-PAGE followed by Coomassie staining.
(§2) Forty-four nitrogenous molecules were screened as potential substrates for EsNMT using a standardized assay (25 μg protein, 1 mM substrate, 1 mM SAM, 60 mM HEPES pH 8, 16 hours at 37° C.). In addition, a representative subset was screened as potential substrates for GfCNMT, GfTNMT and PsRNMT under identical conditions. For each substrate and enzyme combination, negative control assays were carried out using protein heated to 100° C. (boiled) for 20 minutes. Assays were quenched with 9 volumes of methanol, centrifuged to pellet insoluble debris and the supernatants were stored at −20° C. prior to analysis.
(§3) Assay supernatants were analyzed by liquid chromatography-mass spectrometry (LC-MS). LC-MS analysis was performed using a 1200 HPLC coupled with a 6410 triple-quadrupole MS (Agilent). Samples (2 μl) were injected onto a Luna […] Phenyl-Hexyl 100 Å HPLC column and analytes were eluted in a gradient of solvent A (0.1% Formic acid, 5% v/v methanol in water) and solvent B (0.1% Formic acid in methanol) at a flow rate of 300 μl per minute. The gradient began at 0% B, reached 35% B by 12 minutes, then increased to 85% B at 14 min and remained at that level until 18 minutes. Subsequently, the mixture returned to 0% B over a period of 3 minutes before a final 6 minute re-equilibration period. Analytes were applied to the mass analyzer using an electrospray ionization probe operating in positive mode with the following condition: capillary voltage, 4000V; fragmentor voltage, 100V, source temperature, 350° C.; nebulizer pressure, 50 PSI; gas flow 10 L/min. Ions were detected in full scan mode where quadrupoles 1 and 2 were set to RF only, whereas the third quadrupole scanned from 100-500 m/z over 525 milliseconds. Substrate acceptance by the enzymes was determined according to the formation of a peak with a 14-m/z increase in mass, corresponding to methylated substrate and a decrease in the substrate peak area, relative to the appropriate boiled control assay.
(§4) Each of the alkaloid substrates shown in Table 1 were incubated with the following N-alkyltransferases: GfCNMT (SEQ. ID NO: 3), gfTNMT (SEQ. ID NO: 4) and Ps RNMT ([…]) and EsNMT (SEQ. ID NO: 2), as described in Example 1. The presence of N-alkylated alkaloid product was detected as described in Examples 1-20. Legend: ND=Not Determined; −=no detectable quantities of product N-alkylated compound; and Trace, +, ++, +++=increasing relative levels of product N-alkylated compound.

In test [2] the test system is GfCNMT. Kind of test: N-alkylation substrate screen using GfCNMT (LC-MS). Format: biochemical, Glaucium flavum. Also noted: key: −=no detectable quantities of product N-alkylated compound; Trace, +, ++, +++=increasing relative levels of product N-alkylated compound; Trace, +, ++, +++=increasing relative levels of product N-alkylated compound; Trace, +, ++, +++=increasing relative levels of product N-alkylated compound; Trace, +, ++, +++=increasing relative levels of product N-alkylated compound. The settings on record: 25 μg protein, 1 mM substrate, 1 mM SAM, 60 mM HEPES pH 8, 16 hours at 37° C.; relative level of N-alkylated product by LC-MS. Here is the method:
(§5) The GfCNMT, GfTNMT and PsRNMT coding sequences were amplified from Glaucium flavum (GfCNMT and GfTNMT) or Papaver somniferum (PsRNMT) cDNA using gene-specific primers containing attB recombination sites with Q5 HiFi DNA polymerase (NEB). Recombination reactions were carried out using BP and LR Clonase II (Thermo Scientific) to generate individual pDONR221 entry plasmids and, subsequently, individual pHGWA plasmids for heterologous expression of polyhistidine (HIS6)-tagged recombinant GfCNMT, GfTNMT and PsRNMT. Protein overexpression was carried out at 18° C. using E. coli ArcticExpress (Agilent) grown in Studier's autoinduction media.
as §1, §2, §3, §4

Test [3] concerns PsRNMT. Kind of test: N-alkylation substrate screen using PsRNMT (LC-MS). The format is biochemical, Papaver somniferum. Also noted: key: −=no detectable quantities of product N-alkylated compound; Trace, +, ++, +++=increasing relative levels of product N-alkylated compound; Trace, +, ++, +++=increasing relative levels of product N-alkylated compound; Trace, +, ++, +++=increasing relative levels of product N-alkylated compound; Trace, +, ++, +++=increasing relative levels of product N-alkylated compound. The settings on record: 25 μg protein, 1 mM substrate, 1 mM SAM, 60 mM HEPES pH 8, 16 hours at 37° C.; relative level of N-alkylated product by LC-MS. Here is the method: as §5, §1, §2, §3, §4

`CC(N)c1ccccc1` (stereo not shown) [1-Phenylethaneamine, 1-phenylethan-1-amine]: in test [1], the “N-alkylation of substrate alkaloid compounds, Enzyme EsNMT” value (from here on “N-alkylation … Enzyme EsNMT”) is “−” and the “N-alkylated alkaloid product detected after incubation with EsNMT (SEQ. ID NO: 2)” value is recorded as “No N-alkylated alkaloid product compounds were detected”.

On to `N[C@@H](Cc1ccc(O)c(O)c1)C(=O)O` [3,4-dihydroxyphenylalanine], for which, in test [1], the “N-alkylation … Enzyme EsNMT” value was “−” and the “N-alkylated alkaloid product detected after incubation with EsNMT (SEQ. ID NO: 2)” value is given as “No N-alkylated alkaloid product compounds were detected”.

Take `Nc1ncnc2nc[nH]c12` [Adenine, adenine]: in test [1], the “N-alkylation … Enzyme EsNMT” value is “−” and the “N-alkylated alkaloid product detected after incubation with EsNMT (SEQ. ID NO: 2)” value is given as “No N-alkylated alkaloid product compounds were detected”.

For the compound `Nc1ccccc1C(=O)O` [Anthrallic acid, anthranilic acid], in test [1], the “N-alkylation … Enzyme EsNMT” value is “−” and the “N-alkylated alkaloid product detected after incubation with EsNMT (SEQ. ID NO: 2)” value is listed as “No N-alkylated alkaloid product compounds were detected”.

As for `NCc1ccccc1` [Benzylamine, benzylamine], in test [1], the “N-alkylation … Enzyme EsNMT” value was “−” and the “N-alkylated alkaloid product detected after incubation with EsNMT (SEQ. ID NO: 2)” value is given as “No N-alkylated alkaloid product compounds were detected”.

Turning to `C[C@H](N)C(=O)c1ccccc1` [Cathinone, cathinone], the “N-alkylation … Enzyme EsNMT” value in test [1] is recorded as “+”.

For `NCCc1ccc(O)c(O)c1` [Dopamine, dopamine], in test [1], the “N-alkylation … Enzyme EsNMT” value is given as “−” and the “N-alkylated alkaloid product detected after incubation with EsNMT (SEQ. ID NO: 2)” value is recorded as “No N-alkylated alkaloid product compounds were detected”.

`CN[C@@H](C)[C@H](O)c1ccccc1` [Ephedrine, ephedrine, reference compound]: in test [1], the “N-alkylation … Enzyme EsNMT” value was “+”. For the same compound, the “N-alkylation of substrate alkaloid compounds, Enzyme GfCNMT” value in test [2] is recorded as “−”. For the same compound, the “N-alkylation of substrate alkaloid compounds, Enzyme PsRNMT” value in test [3] is given as “−”.

Regarding `CC[C@@H]1CN2CCc3c([nH]c4cccc(OC)c34)[C@@H]2C[C@@H]1/C(=C\OC)C(=O)OC` [Mitragynine, mitragynine], in test [1], the “N-alkylation … Enzyme EsNMT” value is “−” and the “N-alkylated alkaloid product detected after incubation with EsNMT (SEQ. ID NO: 2)” value was “No N-alkylated alkaloid product compounds were detected”.

For `CNC(C)C(=O)c1ccccc1` (stereo not shown) [N-Methyl-cathinone, N-methyl-cathinone], the “N-alkylation … Enzyme EsNMT” value in test [1] was “+”.

Take `Oc1ccc(CC2NCCc3cc(O)c(O)cc32)cc1O` (stereo not shown) [Norlaudanosoline, norlaudanosoline]: in test [1], the “N-alkylation … Enzyme EsNMT” value is “−” and the “N-alkylated alkaloid product detected after incubation with EsNMT (SEQ. ID NO: 2)” value was “No N-alkylated alkaloid product compounds were detected”.

For `C[C@H](N)[C@@H](O)c1ccccc1` [Norpseudoephedrine, norpseudoephedrine], the “N-alkylation … Enzyme EsNMT” value in test [1] is “+”.

With `NCC(O)c1ccc(O)cc1` (stereo not shown) [Octopamine, octopamine], in test [1], the “N-alkylation … Enzyme EsNMT” value is recorded as “−” and the “N-alkylated alkaloid product detected after incubation with EsNMT (SEQ. ID NO: 2)” value is recorded as “No N-alkylated alkaloid product compounds were detected”.

As to `COc1ccc(Cc2nccc3cc(OC)c(OC)cc23)cc1OC` [Papaverine, papaverine, reference compound], the “N-alkylation … Enzyme EsNMT” value in test [1] is “Trace”.

For the compound `CC(C)(N)Cc1ccccc1` [Phentermine, phentermine, reference compound], the “N-alkylation … Enzyme EsNMT” value in test [1] is recorded as “+”.

For `N[C@@H](Cc1ccccc1)C(=O)O` [Phenylalanine, phenylalanine], in test [1], the “N-alkylation … Enzyme EsNMT” value was “−” and the “N-alkylated alkaloid product detected after incubation with EsNMT (SEQ. ID NO: 2)” value is listed as “No N-alkylated alkaloid product compounds were detected”.

As to `CN[C@@H](C)[C@@H](O)c1ccccc1` [Pseudoephedrine, pseudoephedrine, reference compound], the “N-alkylation … Enzyme EsNMT” value in test [1] is recorded as “+”.

As for `CNCC(O)c1ccc(O)cc1` (stereo not shown) [Synephrine, synephrine], the “N-alkylation … Enzyme EsNMT” value in test [1] is on record as “+”.

As to `CC1NCCc2cc(O)c(O)cc21` (stereo not shown) [THQ1, 1-methyl-6,7-dihydroxy-1,2,3,4-tetrahydroisoquinoline], the “N-alkylation … Enzyme EsNMT” value in test [1] was “+”.

`NCCS(=O)(=O)O` [Taurine, taurine]: in test [1], the “N-alkylation … Enzyme EsNMT” value is given as “−” and the “N-alkylated alkaloid product detected after incubation with EsNMT (SEQ. ID NO: 2)” value is “No N-alkylated alkaloid product compounds were detected”.

For `Cn1cnc2c1c(=O)[nH]c(=O)n2C` [Theobromine, theobromine], in test [1], the “N-alkylation … Enzyme EsNMT” value was “−” and the “N-alkylated alkaloid product detected after incubation with EsNMT (SEQ. ID NO: 2)” value was “No N-alkylated alkaloid product compounds were detected”.

Take `CN1[C@@H]2CC[C@H]1CC(=O)C2` [Tropinone, tropinone]: in test [1], the “N-alkylation … Enzyme EsNMT” value is on record as “−” and the “N-alkylated alkaloid product detected after incubation with EsNMT (SEQ. ID NO: 2)” value is on record as “No N-alkylated alkaloid product compounds were detected”.

Consider `N[C@@H](Cc1c[nH]c2ccccc12)C(=O)O` [Tryptophan, tryptophan], for which, in test [1], the “N-alkylation … Enzyme EsNMT” value is reported as “−” and the “N-alkylated alkaloid product detected after incubation with EsNMT (SEQ. ID NO: 2)” value was “No N-alkylated alkaloid product compounds were detected”.

As for `N[C@@H](Cc1ccc(O)cc1)C(=O)O` [Tyrosine, tyrosine], in test [1], the “N-alkylation … Enzyme EsNMT” value was “−” and the “N-alkylated alkaloid product detected after incubation with EsNMT (SEQ. ID NO: 2)” value is recorded as “No N-alkylated alkaloid product compounds were detected”.

With `O=c1[nH]c(=O)c2ncn([C@@H]3O[C@H](CO)[C@@H](O)[C@H]3O)c2[nH]1` [Xanthosine, xanthosine], in test [1], the “N-alkylation … Enzyme EsNMT” value is given as “−” and the “N-alkylated alkaloid product detected after incubation with EsNMT (SEQ. ID NO: 2)” value is listed as “No N-alkylated alkaloid product compounds were detected”.

With `CN(C)c1ccc(C=O)cc1` [p-dimethylaminobenzaldehyde], in test [1], the “N-alkylation … Enzyme EsNMT” value was “−” and the “N-alkylated alkaloid product detected after incubation with EsNMT (SEQ. ID NO: 2)” value is “No N-alkylated alkaloid product compounds were detected”.

Consider methylephedrine, for which the “N-alkylation … Enzyme EsNMT” value in test [1] is given as “+”.
